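96-well plates; 48 h exposure; 5 concentrations. Endpoints by linear interpolation between flanking doses. Not reached: highest tested concentration assigned. GI50 marks 50% less growth.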 Calls of active or inactive are those of the source. Rule as the data show it: active = GI50 up to about 1.1 µM and inactive = higher.
Assays:
Test in all cases: DTP human tumour cell line panel, 48 h
[1] = tested on: 786-0
[2] = tested on: ACHN
[3] = tested on: HL-60
[4] = tested on: HOP-62
[5] = tested on: HOP-92
[6] = tested on: HT-29
[7] = tested on: K562
[8] = tested on: MDA-N
[9] = tested on: Malme-3M
[10] = tested on: NCI-H226
[11] = tested on: OVCAR-4
[12] = tested on: OVCAR-5
[13] = tested on: PC-3
[14] = tested on: SF-268
[15] = tested on: SF-295
[16] = tested on: SK-MEL-5
[17] = tested on: T47D
[18] = tested on: TK-10
[19] = tested on: U-251

Measured: GI50

CCCCCCCCC/C=C1/CC(CO)(COC(=O)CC(C(C)C)C(C)C)OC1=O (stereo not given)
inactive: [1] 1.35 µM | [2] 3.17 µM | [4] 1.12 µM | [5] 1.28 µM | [6] 16.3 µM | [10] 6.07 µM | [11] 14.7 µM | [12] 12.1 µM | [13] 6.75 µM | [14] 11.3 µM | [16] 3.16 µM | [17] 4.91 µM | [18] 2.89 µM | [19] 11.9 µM
active: [3] 0.271 µM | [7] 0.36 µM | [8] 0.21 µM | [9] 0.515 µM | [15] 0.675 µM

COc1ccc(/N=N\c2c(N)nn3c(SC)c(C#N)c(N)nc23)cc1
inactive: [1] 3.67 µM | [2] 14.6 µM | [3] 2.71 µM | [4] 22.3 µM | [5] 9.4 µM | [6] 9.75 µM | [7] 2.16 µM | [8] 13.6 µM | [9] 16.2 µM | [10] 21.4 µM | [11] 15.1 µM | [12] 17.6 µM | [13] 6.87 µM | [14] 3.21 µM | [15] 19.9 µM | [16] 16.1 µM | [17] 1.85 µM | [18] 19.1 µM | [19] 5.43 µM

C[C@@H]1CC[C@@]2(OC1)O[C@H]1C[C@H]3[C@@H]4CC[C@H]5C[C@@H](OC6OC(CO)C(OC7OC(CO)C(O)C(OC8OCC(O)C(O)C8O)C7OC7OC(CO)C(O)C(O)C7O)C(O)C6O)[C@H](O)C[C@]5(C)[C@H]4CC[C@]3(C)[C@H]1[C@@H]2C (stereo not given in full)
inactive: [1] > 10 µM | [2] 2.75 µM | [3] 1.49 µM | [4] 1.42 µM | [5] 23.6 µM | [6] 1.75 µM | [7] 2.11 µM | [8] 10.8 µM | [9] 15.2 µM | [10] 6.47 µM | [11] 1.95 µM | [12] 4.76 µM | [13] 3.15 µM | [14] 7.71 µM | [15] 3.89 µM | [16] 9.84 µM | [17] 5.38 µM | [18] 4.36 µM | [19] 3.13 µM

COc1ccc(C(C)NNC(=O)c2ccncc2)cc1F (stereo not given)
inactive: [1] > 100 µM | [2] > 100 µM | [3] > 100 µM | [4] > 100 µM | [5] > 100 µM | [6] > 100 µM | [7] > 100 µM | [8] > 100 µM | [9] > 100 µM | [10] > 100 µM | [11] > 100 µM | [12] > 100 µM | [13] > 100 µM | [14] > 100 µM | [15] > 100 µM | [16] > 100 µM | [17] > 100 µM | [18] > 100 µM | [19] > 100 µM

CCCCCCCCCCCC[C@H](O)[C@H]1CC[C@H]([C@H](O)CCCC[C@H](O)CCCCC[C@@H](O)CC2=C[C@H](C)OC2=O)O1
inactive: [1] 5.01 µM | [3] 2.15 µM | [4] 6.3 µM | [5] 4.03 µM | [6] 2.82 µM | [7] 1.23 µM | [8] 2.37 µM | [9] 17.9 µM | [10] 2.84 µM | [11] 17.6 µM | [12] 17.7 µM | [13] 3.1 µM | [14] 3.33 µM | [15] 1.63 µM | [16] 1.75 µM | [17] 4.14 µM | [18] 1.77 µM | [19] 13.8 µM
active: [2] 1.08 µM

Source: ChEMBL document CHEMBL1201862, “PubChem BioAssay data set” (2004)
